Experimental data taken from PMC5955599, “The HTLV-1 gp21 fusion peptide inhibits antigen specific T-cell activation in-vitro and in mice” (PLoS Pathogens, 2018).
Entries after “also recorded” stand apart in the source; their conditions may differ.

Assays:
[1] = tested on: MOG35-55–antigen specific T-cells; test: T-bet and Gata3 expression detected by FACS; assay type: cell-based, mouse (C57Bl/6J); conditions: peptide at 10μM, APC activation, n = 3
Description: (A-B) MOG35-55–antigen specific T-cells were activated by irradiated MOG35-55 presenting APCs, in the presence of the HTLV FP at 10μM. Total RNA was isolated 24 hours following activation and mRNA expression levels were determined by qRT-PCR. The values of each gene were normalized to Rpl13a as a housekeeping control. The HTLV FP reduces TBX21 (T-bet) mRNA expression and elevates GATA3 mRNA expression. The data is presented as arbitrary units. n≥3. (C-H) MOG35-55–antigen specific T-cells were activated by irradiated MOG35-55 presenting APCs, in the presence of either HTLV or HIV FP at 10μM. Samples were fixed in 4% PFA and stained with anti T-bet-APC and anti Gata3-FITC antibodies (C-D) 24, (E-F) 48 and (G-H) 72 hours following activation. Each time point is represented as cell count vs. APC or FITC fluorescence histogram. Analysis was performed using LSR-II flow cytometer (BD) and FlowJo cell analysis software (FlowJo, LLC). The HTLV FP reduces T-bet expression and elevates Gata3 expression. n = 3. One-way ANOVA was used for statistical analysis. ns, not significant; *P<0.05;** P<0.01.
Antigen-specific T-cells were plated onto round 12-well plates (10^6 cells/ well) and activated with 5x10^5 irradiated (25 gray) APC and 5μg/ml of MOG p35-55 in the presence or absence of relevant peptides. Cells were washed with PBS, blocked (5% Donkey serum, 2% BSA and 0.1% Triton in PBS) and fixed with 4% Paraformaldehyde (PFA) 24 hour following activation. Cells were then stained with Gata3-FITC and T-bet-APC fluorochrome-labeled monoclonal mouse antibodies (purchased from Miltenyi Biotec) according to Miltenyi Biotec protocols. Samples were then collected using LSR-II flow cytometer and analyzed with FlowJo cell analysis software.

[2] = tested on: MOG35-55–antigen specific T-cells; test: In-vitro T-cell proliferative response (H3-thymidine incorporation); assay type: cell-based, mouse (C57Bl/6J); conditions: peptide at 10μM; for inhibition of T-cell proliferation, activation by PMA and Ionomycin: 50ng/mL PMA with 1μM ionomycin; for inhibition of T-cell proliferation, activation by antibodies against CD3 and CD28: CD3 and CD28 antibodies 2μg/ml; for inhibition of T-cell proliferation, activation by MOG35-55 presenting APCs: irradiated MOG35-55 presenting APCs, mean inhibition of proliferation
[3] = Circular dichroism spectroscopy with CDNN secondary structure analysis; assay type: physicochemical; conditions: 25μM peptide in 5mM HEPES buffer with 1% LPC; for Antiparallel β-Sheet / Parallel β-Sheet / Random-coil / α-Helix / β-turn: CD 190–260 nm, CDNN, relative amount of structure out of 100%; for secondary structure in a membrane mimetic environment: CD
Description: Fig 6 Detection of the immune modulatory region within the HTLV FP. (A) Sequences of shorter peptides derived from the full length HTLV FP. (B) MOG35-55–antigen specific T-cells were activated by APCs in the presence of HTLV FP derived peptides at 10μM and proliferative responses were assessed as described above. […] The data is presented as mean inhibition of proliferation. n = 12. (C) MOG35-55–antigen specific T cells were activated by either (i) irradiated MOG35-55 presenting APCs (black), (ii) antibodies against CD3 and CD28 (white), or (iii) PMA and Ionomycin (gray) in the presence of HTLV FP5-13 and HIV FP5-13 at 10μM. Proliferative responses were assessed as described above. The HTLV FP inhibits T-cell proliferation induced either through the TCR or downstream from the TCR with equal potencies. The data is presented as mean inhibition of proliferation. n = 12. […] CD spectra were measured at 25μM in 5mM HEPES buffer containing 1% lyso-phosphatidylcholine (LPC). […] (E) MOG35-55–antigen specific T-cells were activated by APCs in the presence of HTLV FP5-13 D/L enantiomers at 10μM and proliferative responses were assessed as described above. Both HTLV FP5-13 enantiomers inhibit T-cells proliferation with equal potencies. The data is presented as mean inhibition of proliferation. n = 12. One-way ANOVA was used for statistical analysis. *P<0.05;**P<0.01;***P<0.001.

Row | Sequence | inhibition of T-cell proliferation, activation by PMA and Ionomycin ([2]; n = 12) | inhibition of T-cell proliferation, activation by antibodies against CD3 and CD28 ([2]; n = 12) | inhibition of T-cell proliferation, activation by MOG35-55 presenting APCs ([2]; n = 12) | Antiparallel β-Sheet [3] [%] | Parallel β-Sheet [3] [%] | Random-coil [3] [%] | α-Helix [3] [%] | β-turn [3] [%] | secondary structure in a membrane mimetic environment [3] | also measured
1 | AVGIGALFLGFLGAAGSTMGARSMTLTVQARQL [HIV FP, HIV-1 gp41 fusion peptide, HXB2 isolate, reference compound] | decreased significantly when activation was downstream of TCRα and β | decreased significantly when activation was downstream of TCRα and β | inhibits T-cell proliferation with the same potency as the HIV FP |  |  |  |  |  |  | Gata3 expression (protein), 24 hours ([1]; 24 hours following activation): had no effect on Gata3 expression; T-bet expression (protein), 24 hours ([1]; 24 hours following activation): had no effect on T-bet expression; Gata3 expression (protein), 48 hours ([1]; 48 hours following activation): had no effect on Gata3 expression; T-bet expression (protein), 48 hours ([1]; 48 hours following activation): had no effect on T-bet expression; Gata3 expression (protein), 72 hours ([1]; 72 hours following activation): had no effect on Gata3 expression
2 | AVGMVIFLLVLAIMAMTASVTAAATLVKQHATA [JDV FP, Jembrana disease virus fusion peptide, Tabanan/87 isolate] |  |  | showed no inhibitory activity |  |  |  |  |  |  | 
3 | AVWLVSALA [HTLV FP5-13, segment 5-13 of the HTLV FP] | inhibited all three levels of activation | inhibited all three levels of activation |  | 6.7 | 5.2 | 17.3 | 54 | 16.8 | exhibited an α-helical structure | inhibition of T-cell proliferation, activation by MOG35-55 presenting APCs ([2]; n = 12, 10 µM): inhibited all three levels of activation; also recorded: inhibit T-cell proliferation with higher potency than HTLV FP9-22 and HTLV FP14-22; also recorded: inhibited T-cell proliferation with the same potency
4 | GALFLGFLG [HIV FP5-13, reference compound] | significantly diminished when T-cells were activated using CD3 and CD28 antibodies or PMA and Ionomycin | significantly diminished when T-cells were activated using CD3 and CD28 antibodies or PMA and Ionomycin |  |  |  |  |  |  |  | 
5 | MGAGVAGGI [HTLV FP14-22, segment 14-22 of the HTLV FP] |  |  | higher potency than HTLV FP9-22 and HTLV FP14-22 | 27.7 | 11.7 | 32.5 | 11.2 | 17.1 | found to be random coils | 
6 | VAALTLGLALSVGLTGINVAVSALSHQRLTSLI [BLV FP, bovine leukemia virus fusion peptide, Japanese isolate of BLV-1] |  |  | significantly stronger than the BLV FP |  |  |  |  |  |  | 
7 | VSALAMGAGVAGGI [HTLV FP9-22, segment 9-22 of the HTLV FP] |  |  | higher potency than HTLV FP9-22 and HTLV FP14-22 | 30.4 | 11.7 | 32.6 | 8.5 | 16.8 | found to be random coils | 
